What is called GI50 is the concentration at which growth is held to half of that of the control. In general, TGI refers to the concentration giving total growth inhibition. The low end stands for more potent growth arrest, the high end for less potent growth arrest.

This passage reports GI50 and TGI results from PubChem BioAssay (NCI).

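Interpolation was linear, between the two tested concentrations surrounding the appropriate level; five concentrations were tested over 48 hours in 96-well plates. GI50 is the concentration that inhibits growth by half. Definition used: TGI = concentration required for complete inhibition of growth.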

Test systems include UACC-257 melanoma; IGROV1 ovarian; HOP-62 NSCLC; MALME-3M melanoma; OVCAR-5 ovarian; U251 CNS; UACC-62 melanoma; DU-145 prostate; HT29 colon; CCRF-CEM leukemia.
What all share (assay): DTP human tumour cell line panel, 48 h

In the case of `O=C(Nc1cccc(C(F)(F)F)c1)c1cc2ccccc2cc1O`, the GI50 was 2.97 µM in the assay with UACC-257 melanoma; 2.88 µM with IGROV1 ovarian; 2.61 µM with HOP-62 NSCLC; 1.15 µM with MALME-3M melanoma; 3.5 µM in the assay on OVCAR-5 ovarian; 1.23 µM in the assay on U251 CNS. Further, the GI50 with UACC-62 melanoma was 0.835 µM; in the assay on DU-145 prostate, 2.22 µM; in the assay with HT29 colon, 3.33 µM; in the assay with CCRF-CEM leukemia it was 3.67 µM. The TGI with UACC-257 melanoma was more than 24.7 µM; in the assay on IGROV1 ovarian it was more than 57.7 µM; with HOP-62 NSCLC, 11.8 µM; in the assay on MALME-3M melanoma it was 6.74 µM; in the assay on OVCAR-5 ovarian, more than 100 µM; in the assay with U251 CNS, more than 100 µM. Also, the TGI in the assay on UACC-62 melanoma is more than 46.1 µM; with DU-145 prostate it was more than 100 µM; in the assay with HT29 colon, more than 55.5 µM; with CCRF-CEM leukemia, more than 100 µM.

As to `C/C(=N/O)c1ccc(Nc2cc(-n3ccnc3)c3ccccc3n2)cc1`, the GI50 with UACC-257 melanoma was 3.77 µM; with IGROV1 ovarian, 15.1 µM; with HOP-62 NSCLC it was 53.2 µM; with MALME-3M melanoma it was 11.4 µM; in the assay on OVCAR-5 ovarian it was 86.6 µM; in the assay with U251 CNS it was 27.3 µM. Moreover, the GI50 in the assay on UACC-62 melanoma was 27.8 µM; in the assay on DU-145 prostate, 38.1 µM; with HT29 colon, 8.34 µM; with CCRF-CEM leukemia it was 0.126 µM. For the same compound, the concentration for total growth inhibition (TGI) with UACC-257 melanoma was 9.35 µM; in the assay with IGROV1 ovarian, 52.8 µM; with HOP-62 NSCLC, more than 100 µM; in the assay with MALME-3M melanoma it was 44.5 µM; in the assay with OVCAR-5 ovarian, more than 100 µM; in the assay with U251 CNS it was more than 100 µM. In addition, the TGI in the assay with UACC-62 melanoma is more than 100 µM; in the assay with DU-145 prostate it was more than 100 µM; in the assay with HT29 colon it was more than 100 µM; in the assay with CCRF-CEM leukemia, 1.99 µM.

With `CN(C(=O)CNC(=O)/C=C/c1cccc(Cl)c1)C1CCS(=O)(=O)CC1`, the GI50 with UACC-257 melanoma was more than 100 µM; with IGROV1 ovarian, 3.05 µM; in the assay on HOP-62 NSCLC, 11 µM; in the assay with MALME-3M melanoma it was 3.45 µM; in the assay on OVCAR-5 ovarian it was 8.5 µM; with U251 CNS it was 39.5 µM. Further, the GI50 with UACC-62 melanoma is 0.986 µM; with DU-145 prostate it was 0.47 µM; with HT29 colon, 0.889 µM; with CCRF-CEM leukemia, more than 100 µM. The TGI in the assay with UACC-257 melanoma, in the assay on IGROV1 ovarian, in the assay on HOP-62 NSCLC, with MALME-3M melanoma, in the assay with OVCAR-5 ovarian and in the assay on U251 CNS was more than 100 µM in each case. Further, the TGI with UACC-62 melanoma, in the assay with DU-145 prostate, with HT29 colon and with CCRF-CEM leukemia was more than 100 µM throughout.

Turning to `O=Cc1ccc(N2CCN(c3ccc(C=O)cc3)CC2)cc1`, the GI50 with UACC-257 melanoma was more than 100 µM; with IGROV1 ovarian, 45.8 µM; with HOP-62 NSCLC, more than 100 µM; in the assay with MALME-3M melanoma it was 0.565 µM; with OVCAR-5 ovarian, 2.6 µM; in the assay with U251 CNS, more than 100 µM. Moreover, the GI50 was 9.36 µM in the assay with UACC-62 melanoma, more than 100 µM in the assay with DU-145 prostate, more than 100 µM in the assay with HT29 colon and more than 100 µM in the assay with CCRF-CEM leukemia. For the same compound, the TGI in the assay with UACC-257 melanoma is more than 100 µM; in the assay on IGROV1 ovarian, more than 100 µM; with HOP-62 NSCLC, more than 100 µM; in the assay with MALME-3M melanoma it was more than 100 µM; with OVCAR-5 ovarian it was 8.09 µM; in the assay on U251 CNS, more than 100 µM. The TGI with UACC-62 melanoma, in the assay with DU-145 prostate, in the assay on HT29 colon and in the assay on CCRF-CEM leukemia was more than 100 µM in each case.

Consider `COc1cccc(NC2=C(Cl)C(=O)N(Cc3ccc(Cl)cc3)C2=O)c1`, for which the GI50 in the assay with UACC-257 melanoma was 3.12 µM; with IGROV1 ovarian, 11.9 µM; with HOP-62 NSCLC, 2.4 µM; with MALME-3M melanoma, 1.17 µM; with OVCAR-5 ovarian, 10 µM; in the assay on U251 CNS it was 1.24 µM. Besides, the GI50 in the assay on UACC-62 melanoma is 1.97 µM; in the assay with DU-145 prostate, 3.8 µM; with HT29 colon, 2.72 µM. In addition, the TGI with UACC-257 melanoma was 30.3 µM; in the assay on IGROV1 ovarian it was more than 37.4 µM; in the assay with HOP-62 NSCLC, 12.3 µM; in the assay on MALME-3M melanoma it was 14.1 µM; in the assay with OVCAR-5 ovarian it was 43.2 µM; in the assay on U251 CNS it was more than 34.6 µM. Also, the TGI in the assay on UACC-62 melanoma was 18.3 µM; in the assay on DU-145 prostate it was 12.1 µM; in the assay on HT29 colon, more than 100 µM; in the assay with CCRF-CEM leukemia, more than 68.9 µM.

`Nc1c(C(=O)Nc2cccc3ccccc23)sc2nc3c(cc12)C(=O)CCC3`: the GI50 with UACC-257 melanoma is 0.183 µM; in the assay with IGROV1 ovarian, 0.52 µM; in the assay with HOP-62 NSCLC, 0.315 µM; in the assay with MALME-3M melanoma it was 0.841 µM; in the assay with OVCAR-5 ovarian, 0.604 µM; in the assay on U251 CNS it was 0.266 µM. The GI50 is 0.166 µM with UACC-62 melanoma, 0.337 µM in the assay on DU-145 prostate, 0.265 µM in the assay with HT29 colon and 0.29 µM in the assay with CCRF-CEM leukemia. Moreover, the TGI was more than 65.8 µM with UACC-257 melanoma; more than 46.7 µM in the assay with IGROV1 ovarian; more than 38.2 µM in the assay with HOP-62 NSCLC; 54.7 µM in the assay with MALME-3M melanoma; more than 100 µM in the assay on OVCAR-5 ovarian; more than 75.8 µM in the assay with UACC-62 melanoma. The results for the concentration for total growth inhibition (TGI) in the assay on DU-145 prostate and in the assay with CCRF-CEM leukemia were 8.71 µM and more than 100 µM, respectively.

As to `COc1cc(/C=N/NC(=O)c2ccccc2Nc2cccc(C(F)(F)F)c2)cc(OC)c1OC`, the GI50 in the assay on UACC-257 melanoma was 4.36 µM; in the assay on IGROV1 ovarian, 4.19 µM; in the assay with HOP-62 NSCLC, 3.23 µM; in the assay on MALME-3M melanoma, 1.75 µM; with OVCAR-5 ovarian, 11.8 µM; in the assay with U251 CNS, 2.28 µM. The GI50 was 3.66 µM with UACC-62 melanoma, 2.61 µM in the assay with DU-145 prostate, 1.67 µM in the assay on HT29 colon and 1.03 µM in the assay with CCRF-CEM leukemia. Also, the concentration for total growth inhibition (TGI) was determined as 15.4 µM in the assay with UACC-257 melanoma; 14.2 µM in the assay with IGROV1 ovarian; 11 µM in the assay with HOP-62 NSCLC; 8.45 µM in the assay on MALME-3M melanoma; 33.1 µM in the assay with OVCAR-5 ovarian; 6.03 µM in the assay with U251 CNS. Besides, the total growth inhibition concentration (TGI) in the assay with UACC-62 melanoma was found to be 11.6 µM; in the assay on DU-145 prostate, 8.39 µM; with HT29 colon, 10.8 µM; in the assay with CCRF-CEM leukemia, 4.33 µM.
